Test results taken from patent publication US11292807B2 (OCEANS LTD., priority 2015, dated 2022).

System: THP-1 (acute monocytic leukemia)
Experiment: CIMA assay, cell viability, THP-1
[1] = THP-1, 1 ug/mL, listed as 174-13-14-3
[2] = THP-1, 10 ug/mL, listed as 174-13-14-3
[3] = THP-1, 50 ug/mL, listed as 174-13-14-3
[4] = THP-1, 100 ug/mL, listed as 174-13-14-3

## CC/C=C\C/C=C\C/C=C\C/C=C\C/C=C\CCCC(=O)OCC(COC1OC(CO)C(O)C(O)C1O)OC(=O)CCCCCCCCCCCCCCC (stereo not drawn) [Compound 2, MGDG C20:5/C16:0]
Homo sapiens, THP-1, read-out: Average cell viability, THP-1, 1 ug/mL
  viability at 1 µg/mL: 102%
Homo sapiens, THP-1, read-out: Average cell viability, THP-1, 10 ug/mL
  viability at 10 µg/mL: 101%
Homo sapiens, THP-1, read-out: Average cell viability, THP-1, 50 ug/mL
  viability at 50 µg/mL: 27%
Homo sapiens, THP-1, read-out: Average cell viability, THP-1, 100 ug/mL
  viability at 100 µg/mL: 17%
THP-1, 1 ug/mL, listed as 169-14-15-4
  Fold change in viability AVG: 1.16
[1]
  Average cell viability: 91%
  Fold change in viability AVG: 1.03
THP-1, 10 ug/mL, listed as 169-14-15-4
  Fold change in viability AVG: 1.14
[2]
  Average cell viability: 88%
  Fold change in viability AVG: 1.00
THP-1, 50 ug/mL, listed as 169-14-15-4
  Fold change in viability AVG: 0.31
[3]
  Average cell viability: 21%
  Fold change in viability AVG: 0.24
THP-1, 100 ug/mL, listed as 169-14-15-4
  Fold change in viability AVG: 0.19
[4]
  Average cell viability: 21%
  Fold change in viability AVG: 0.23
THP-1, sample at 1 ug/mL, listed as 169-14-15-4
  THP-1 AVG: 1.16
THP-1, sample at 1 ug/mL, listed as 174-13-14-3
  THP-1 AVG: 1.03
THP-1, sample at 10 ug/mL, listed as 169-14-15-4
  THP-1 AVG: 1.14
THP-1, sample at 10 ug/mL, listed as 174-13-14-3
  THP-1 AVG: 1.00
THP-1, sample at 50 ug/mL, listed as 169-14-15-4
  THP-1 AVG: 0.31
THP-1, sample at 50 ug/mL, listed as 174-13-14-3
  THP-1 AVG: 0.24
THP-1, sample at 100 ug/mL, listed as 169-14-15-4
  THP-1 AVG: 0.19
THP-1, sample at 100 ug/mL, listed as 174-13-14-3
  THP-1 AVG: 0.23
